Where two headings read alike, the source gives them in different places.
Columns and labels:
Acanthoscelides obtectus = tested on: Acanthoscelides obtectus; set-up: method as in Regnault-Roger et al. (2004); conditions: adults, ref Regnault-Roger et al. (2004), cited from earlier work
Sitobion avanae [1] = tested on: Sitobion avanae; set-up: method as in Leszczynski et al. (1995); conditions: ref Leszczynski et al. (1995), cited from earlier work
Helicoverpa zea [2] = tested on: Helicoverpa zea; set-up: method as in Summers and Felton (1994); conditions: 4 mM, ref Summers and Felton (1994), cited from earlier work
Helicoverpa armigera [3] = tested on: Helicoverpa armigera; set-up: method as in Joshi et al. (2014); conditions: ref Joshi et al. (2014), cited from earlier work
Choristoneura fumiferana = tested on: Choristoneura fumiferana; set-up: method as in Grant and Langevin (2002); conditions: ref Grant and Langevin (2002), cited from earlier work
Dalbulus maidis = tested on: Dalbulus maidis; set-up: method as in Dowd and Vega (1996); conditions: adults, 400 ppm, in vitro bioassay; ref Dowd and Vega (1996); cited from earlier work
Sitodiplosis mosellana = tested on: Sitodiplosis mosellana; set-up: method as in Ding et al. (2000); conditions: constitutive levels exceeding 0.35 µg/g fresh weight (1.57 µg/g dry weight); ref Ding et al. (2000); cited from earlier work
Sitobion avanae [4] = tested on: Sitobion avanae; set-up: method as in Chrzanowski et al. (2012); conditions: ref Chrzanowski et al. (2012); cited from earlier work
Mamestra configurata = tested on: Mamestra configurata; set-up: method as in Onyilagha et al. (2004); conditions: applied at concentration > endogenous levels, 0.05–0.45 µmol per leaf disk, choice feeding assay; ref Onyilagha et al. (2004); cited from earlier work
Liriomyza trifolii = tested on: Liriomyza trifolii; set-up: method as in Kashiwagi et al. (2005); conditions: 4.90 µg/cm^2; ref Kashiwagi et al. (2005); cited from earlier work
Spodoptera exigua = tested on: Spodoptera exigua; set-up: method as in Cipollini et al. (2008); conditions: individual compound in diet plugs; ref Cipollini et al. (2008); cited from earlier work
[5] = tested on: Frankliniella occidentalis; set-up: method as in Leiss et al. (2013); conditions: 25% of natural plant concentrations (0.53 mg/g); ref Leiss et al. (2013); cited from earlier work
[6] = Solubility in natural deep eutectic solvents (saturated solutions, UV-VIS); type: physicochemical
Experimental: As an extension of these studies, we have investigated the solubility of six insecticidal metabolites in a variety of NADES. The solvent selection framework consisted of the following steps: • Preliminary solvent screening: a pre-selected set of 20 NADES was used as a starting point to identify and rank potential NADES candidates (Table 3). Selection constraints were imposed on important properties such as viscosity and stability.
• Secondary screening: solubility tests were performed to determine the best solvent for each of the metabolites. Saturated solutions, generated by adding an excess amount of each compound to different NADES, were kept under constant stirring (1100 rpm) for 24 h at 50 °C. The 20 candidates were ranked in decreasing order of solvent power. • Solubility verification: For the verification of solubilities, samples were centrifuged for 5 min at 2000 rpm and subsequently diluted suitably with methanol for spectrophotometric analysis (UV-1800 UV–VIS spectrophotometer, Shimadzu Europe GmbH, Duisburg, Germany).

Acyrthosiphon pisum = tested on: Acyrthosiphon pisum; set-up: method as in Goławska and Łukasik (2012); conditions: 100 µg cm^−3; ref Goławska and Łukasik (2012); cited from earlier work
Spodoptera litura [7] = conditions: 0.7–0.8 µg/ml; ref Mallikarjuna et al. (2004); cited from earlier work
Anticarsia gemmatalis = tested on: Anticarsia gemmatalis; set-up: method as in Salvador et al. (2010); conditions: 0.65% (mg/ml); ref Salvador et al. (2010); cited from earlier work
[8] = cited from earlier work
Helicoverpa zea [9] = tested on: Helicoverpa zea; set-up: method as in Simmonds (2003); conditions: 10^−3 M; ref Simmonds (2003); cited from earlier work
Helicoverpa armigera [10] = tested on: Helicoverpa armigera; set-up: method as in Jadhav et al. (2012); conditions: 1 µg/ml; ref Jadhav et al. (2012); cited from earlier work
Lymantria dispar = tested on: Lymantria dispar; set-up: method as in Beninger and Abou-Zaid (1997); conditions: 0.05%, day 15; ref Beninger and Abou-Zaid (1997); cited from earlier work
Helicoverpa armigera [11] = tested on: Helicoverpa armigera; set-up: method as in Simmonds (2003); conditions: 10^−3 M; ref Simmonds (2003); cited from earlier work
Spodoptera litura [12] = tested on: Spodoptera litura; set-up: method as in Jadhav et al. (2012); conditions: 1 µg/ml; ref Jadhav et al. (2012); cited from earlier work
Phyllotreta cruciferae = tested on: Phyllotreta cruciferae; set-up: method as in Onyilagha et al. (2012); conditions: 1 month old flea beetle, binary feeding bioassay; ref Onyilagha et al. (2012); cited from earlier work
Spilarctia obliqua = tested on: Spilarctia obliqua; set-up: method as in Tripathi et al. (2011); conditions: 250 µg/g, compared with azadirachtin; ref Tripathi et al. (2011); cited from earlier work
Coptotermes formosanus = tested on: Coptotermes formosanus; set-up: method as in Adfa et al. (2010); conditions: 5 µmol; ref Adfa et al. (2010); cited from earlier work
Zygogramma exclamationis = tested on: Zygogramma exclamationis; set-up: method as in Olson and Roseland (1991); conditions: topical application of 100 µg/ml; ref Olson and Roseland (1991); cited from earlier work
Anopheles arabiensis = tested on: Anopheles arabiensis; set-up: method as in Narayanaswamy et al. (2014); conditions: 100 µg/ml; ref Narayanaswamy et al. (2014); cited from earlier work
Plutella xylostella = tested on: Plutella xylostella; set-up: method as in Peterson et al. (2003); conditions: ref Peterson et al. (2003); cited from earlier work
Delia radicum = tested on: Delia radicum; set-up: method as in Jones et al. (1988); conditions: 10 mM in buffered solution; ref Jones et al. (1988); cited from earlier work
Etiella zinckenella = tested on: Etiella zinckenella; set-up: method as in Hattori et al. (1992); conditions: 0.5 mg; ref Hattori et al. (1992); cited from earlier work

SMILES: O=C(O)/C=C/c1ccc(O)c(O)c1 [Caffeic acid]
- Knockdown effect (mobility and mortality) (Acanthoscelides obtectus; in vitro bioassay): Knockdown effect: reduced mobility and increased mortality in adults (in vitro bioassay)
- Phloem sap ingestion (Sitobion avanae [1]; 2.5 mM): Reduction of phloem sap ingestion at 2.5 mM
- Prooxidant effect on midgut proteins (Helicoverpa zea [2]; chronic exposure): oxidative stress in midgut proteins
- Development rate, survivorship and pupal weight (Helicoverpa zea [2]): Development rate, survivorship and pupal weight negatively influenced
- Body weight and survival (Helicoverpa armigera [3]; range of 50–200 ppm): Body weight and survival significantly reduced
- Mode of action (Helicoverpa armigera [3]): Protease inhibitor

SMILES: COc1cc(/C=C/C(=O)O)ccc1O [Ferulic acid]
- Knockdown effect (mobility and mortality) (Acanthoscelides obtectus; day 8, in vitro bioassay): Knockdown effect: reduced mobility and increased mortality of adults at day 8 (in vitro bioassay)
- Sieve element salvation (Sitobion avanae [1]; 2.5 mM): Reduced sieve element salvation at 2.5 mM
- Oviposition deterrence (Choristoneura fumiferana; 7.8 nmol/cm^2, dual choice bioassay): Oviposition deterrent 7.8 nmol/cm^2 (dual choice bioassay)
- Antifeedant activity (Dalbulus maidis): Antifeedant activity in adults at 400 ppm (in vitro bioassay)
- Mortality of newly hatched larvae (Sitodiplosis mosellana): Constitutive levels exceeding 0.35 µg/g fresh weight (1.57 µg/g dry weight) increased mortality of newly hatched larvae
- Reproductive period and daily fecundity (Sitobion avanae [4]): Prolonged reproductive period and reduced daily fecundity

SMILES: O=c1c(O[C@@H]2O[C@H](CO)[C@@H](O)[C@H](O)[C@H]2O)c(-c2ccc(O)cc2)oc2cc(O[C@@H]3O[C@H](CO)[C@@H](O)[C@H](O)[C@H]3O)cc(O)c12 [Kaempferol-3,7-diglucoside]
- Feeding deterrence (Mamestra configurata): Kaempferol-3,7-diglucoside acts as feeding deterrent when applied at concentration > endogenous levels; 0.05–0.45 µmol per leaf disk (choice feeding assay)

SMILES: O=c1cc(-c2ccc(O)c(O)c2)oc2cc(O[C@@H]3O[C@H](CO)[C@@H](O)[C@H](O)[C@H]3O[C@@H]3OCC(O)(CO)[C@H]3O)cc(O)c12 (stereo partly drawn) [Luteolin 7-O-β -D-apiofranosyl-(1→2)-β-D-glucopyranoside]
- Ovipositional deterrence (Liriomyza trifolii): Ovipositional deterrent at 4.90 µg/cm^2

SMILES: O=c1cc(-c2ccc(O)c(O)c2)oc2cc(O[C@@H]3O[C@H](CO)[C@@H](O)[C@H](O)[C@H]3O)cc(O)c12 [Luteolin-7-glucoside]
- Knockdown effect (mobility and mortality) (Acanthoscelides obtectus; in vitro bioassay): Toxin: knockdown effect: reduced mobility and increased mortality

SMILES: O=c1cc(-c2ccc(O)c(O)c2)oc2cc(O)cc(O)c12 [Luteolin]
- Anti-herbivory activity (Spodoptera exigua): no anti-herbivory activity was observed
- Feeding (Spodoptera exigua): marginally stimulating feeding
- Mortality of first instar larvae [5]: Significant increase in mortality of first instar larvae at 25% of natural plant concentrations (0.53 mg/g)
- Solubility ([6]; 1,2-propanediol: choline chloride: water (1:1:1), water 7.71%, 24 h at 50 °C, mean ± SD, n = 3): 13.08 ± 0.86 mg/g
- Solubility enhancement with NADES compared to aqueous solubility ([6]; NADES of Table 4 versus water (Table 2)): > 95 fold
- Probing and feeding deterrence (Acyrthosiphon pisum): Probing and feeding deterrent at 100 µg cm^−3

SMILES: C[C@@H]1O[C@@H](OC[C@H]2O[C@@H](Oc3c(-c4ccc(O)c(O)c4)oc4cc(O)cc(O)c4c3=O)[C@H](O)[C@@H](O)[C@@H]2O)[C@H](O)[C@H](O)[C@H]1O [Rutin]
- Knockdown effect (mobility and mortality) (Acanthoscelides obtectus; in vitro bioassay): Knockdown effect in bioassay: reduced mobility and increased mortality of adults
- Development (Spodoptera litura [7]): Developmental retardation
- Larval mortality (Spodoptera litura [7]): > 60%
- Larval development, amount of food consumed, pupal weight (Anticarsia gemmatalis): Larval development, amount of food consumed, and pupal weight were negatively influenced at 0.65% (mg/ml)
- Solubility in NADES diluted with water ([8]; diluted with 5–10% of water, ref Dai et al. (2013)): higher solubility
- Solubility in NADES compared to aqueous solubility ([8]; ref Dai et al. (2013, 2015)): significantly increased
- Feeding deterrence (Helicoverpa zea [9]): Feeding deterrent at 10^−3 M
- Feeding and larval growth (Helicoverpa armigera [10]): Cessation of feeding inhibits larval growth (1 µg/ml)
- Larval weight reduction (Lymantria dispar): Larval growth inhibitor. Larval weight reduced by 45% at 0.05% at day 15
- Solubility ([6]; 1,2-propanediol: choline chloride: water (1:1:3), water 20.04%, 24 h at 50 °C, mean ± SD, n = 3): 18.46 ± 0.67 mg/g
- Solubility increase compared to water ([6]; PCH (1:1:3) versus water (Tables 2, 4)): fivefold
- Feeding deterrence (Helicoverpa armigera [11]): Feeding deterrent at 10^−3 M
- Larval development, pupal mortality, adult malformation (Spodoptera litura [12]): Larval development arrested, increased pupal mortality and malformation of adults at 1 µg/ml
- Feeding deterrence (Phyllotreta cruciferae): Feeding deterrent of 1 month old flea beetle (binary feeding bioassay)

SMILES: COc1cc2ccc(=O)oc2cc1O [Scopoletin]
- Phloem sap ingestion (Sitobion avanae [1]; 2.5 mM): Reduced ingestion of phloem sap at 2.5 mM
- Antifeedant and growth inhibitory activity (Spilarctia obliqua): Antifeedant and growth inhibitor. At 250 µg/g deterrence and growth inhibition was similar to that of azadirachtin
- Termicidal and antifeedant effects (Coptotermes formosanus): Termicidal and antifeedant effects at 5 µmol
- Feeding deterrence (preference) (Zygogramma exclamationis): Phytoalexin: feeding deterrent. Topical application of 100 µg/ml reduces preference
- Repellent activity (Anopheles arabiensis): Repellent activity at 100 µg/ml
- Antibiosis (growth inhibitor), concentration in diet (Plutella xylostella): > 2500 µg/g diet
- LD50 (Plutella xylostella): ~8300 µg/mL

SMILES: COc1cc(/C=C/C(=O)O)cc(OC)c1O [Sinapic acid]
- Phloem sap ingestion (Sitobion avanae [1]; 2.5 mM): Reduced ingestion of phloem sap at 2.5 mM
- Oviposition deterrence (Choristoneura fumiferana; 78.6 nmol/cm^2): Oviposition deterrent at 78.6 nmol/cm^2
- Reduction of number of eggs (oviposition deterrent) (Delia radicum): Oviposition deterrent; 10 mM in buffered solution reduced number of eggs by 60–70%
- Mortality of first instar larvae [5]: Significant increase in mortality of first instar larvae at 25% of natural plant concentrations (0.53 mg/g)
- Solubility [6]: 21.59 ± 0.24 mg/g
- Solubility enhancement with NADES compared to aqueous solubility [6]: > 34 fold

SMILES: O=C(O)C=Cc1ccc(O)cc1 [p-Coumaric acid]
- Phloem sap ingestion (Sitobion avanae [1]; concentration not given): Reduction ingestion of phloem sap
- Antifeedant activity (Dalbulus maidis): Antifeedant activity in adults at 400 ppm (in vitro bioassay)
- Oviposition deterrence (Etiella zinckenella): Oviposition deterrent at 0.5 mg
